The subject of one data set is Candida albicans A9540. The data set is described as follows: in vivo antifungal activity against C. albicans A9540 intravenous infection in mice. Also noted: species or system male ICR mice. The note with it: for Number of survivors/tested: 20th day; for ED50: Candida albicans, A9540, 480 h, intravenous, from survival rates on the 20th day, read-out: PD50 (dose that protects 50% of the animals from infection). The procedure:
In vivo activity of BU-3608 E was tested against Candida albicans A9540 infection in mice. Test organisms were cultured for 18 hours at 28° C. in YGP medium (yeast extract, glucose, peptone, K2 HPO4, MgSO4) and then suspended in saline. Male ICR mice weighing 20 to 24 g were infected intravenously with about 10 times the median lethal dose of the test fungus. The antibiotic at various dose levels was administered to groups of 5 mice each intravenously just after the fungal infection. The dose that protects 50% of the animals from infection (PD50, mg/kg) was calculated from survival rates recorded on the 20th day after the fungal challenge. All control animals died within 7 to 15 days after infection. The PD50 for BU-3608 D against the same organism and using the same test protocol as described above is 9 mg/kg/inj.

The nature of data set [1]: acute toxicity in mice after single intravenous administration. The note with it: mouse, in vivo. The procedure: The acute toxicity of BU-3608 D was determined in mice after single intraveneous administration.

In general, LD50 refers to the dose expected to kill half of the subjects tested. Higher therefore signals a less toxic substance.

`COc1cc(O)c2c(c1)C(=O)c1c(cc3c(c1O)-c1c(cc(C)c(C(=O)NCC(=O)O)c1O)[C@H](O[C@@H]1O[C@H](C)[C@H](N)[C@H](O[C@@H]4OC[C@@H](O)[C@H](O)[C@H]4O)[C@H]1O)[C@H]3O)C2=O` [BU-3608 E]: the Number of survivors/tested in the data set on Candida albicans A9540 (1.6 mg/kg/inj. intravenously just after infection) was 0/5; in the data set with Candida albicans A9540 (3.1 mg/kg/inj. intravenously just after infection), 0/5; with Candida albicans A9540 (6.3 mg/kg/inj. intravenously just after infection), 1/5; in the data set on Candida albicans A9540 (12.5 mg/kg/inj. intravenously just after infection) it was 4/5; with Candida albicans A9540 (25 mg/kg/inj. intravenously just after infection), 5/5; with Candida albicans A9540 (50 mg/kg/inj. intravenously just after infection), 5/5. Moreover, the ED50 with Candida albicans A9540 is 8.9 mg/kg.
Take `CN[C@@H]1[C@H](O[C@@H]2OC[C@@H](O)[C@H](O)[C@H]2O)[C@@H](O)[C@H](O[C@H]2c3cc(C)c(C(=O)NCC(=O)O)c(O)c3-c3c(cc4c(c3O)C(=O)c3cc(OC)cc(O)c3C4=O)[C@@H]2O)O[C@@H]1C` [BU-3608 D]: in the data set on Candida albicans A9540, the ED50 was 9 mg/kg. Further, the 50% lethal dose (LD50) in data set [1] came to 210 mg/kg.
